Laboratory results taken from patent publication US20120010557A1, “Drug Delivery System for Use in the Treatment of Vascular and Vessel-Related Pathologies” (priority 2009, published 2012).

Experiments:
[1] = not told; cited from earlier work
[2] = tested on: laser-induced thrombus in hamster dorsal skin fold venules; assay: Laser-induced thrombosis in hamster dorsal skin fold venules, intravital fluorescence microscopy; type: in vivo; details: infused
Text: In the research that led to the invention it was shown that, in PWS vascular analogues (hamster dorsal skin fold venules), the photothermal response is ensued by a hemodynamic response, namely the initiation of primary and secondary hemostasis following laser-induced endovascular damage. There is increasing evidence that misfolded proteins and corollary fibrillar structures referred to as amyloid have the propensity to activate platelets (Herczenik E et al. Arterioscler Thromb Vasc Biol. 2007 July; 27(7):1657-65) and the contact activation pathway (Maas C et al. J Clin Invest. 2008 September; 118(9):3208-18). Inasmuch as thermal coagula are comprised of thermally denatured (i.e., misfolded) proteins, these laser-induced lesions may constitute the basis for the initiation of primary and secondary hemostasis in addition to a thermally afflicted endothelium. […]
FIG. 1: Aggregation of 5,6-carboxyfluorescein (CF)-labeled platelets at the site of laser-induced damage in hamster dorsal skin fold venules as visualized by intravital fluorescence microscopy without (A-F) and with (G-L) priorly infused heparin (Hep). […]

Compound	Increase in bilayer permeability [1]	Effect on laser-induced thrombus formation / lesional size [2]
CC=CC=CC(=O)OCCCCCCCCCC(=O)OC[C@H](COP(=O)([O-])OCC[N+](C)(C)C)OC(=O)CCCCCCCCCOC(=O)C=CC=CC [bis-SorbPC, 1,2-bis[10-(2′,4′-hexadienoloxy)decanonyl]-sn-glycero-3-phosphocholine]	up to 28.000 fold	–
heparin	–	impeding effect on the lesional size
